From article PMC12434715 (Biochemical pharmacology, 2018)
Where two headings read alike, the source gives them in different places.

Legend:
SULT2A1 [1] = target: T1, SULT2A1 (Homo sapiens, UniProt Q06520)
T1 sequence (Q06520 1-285): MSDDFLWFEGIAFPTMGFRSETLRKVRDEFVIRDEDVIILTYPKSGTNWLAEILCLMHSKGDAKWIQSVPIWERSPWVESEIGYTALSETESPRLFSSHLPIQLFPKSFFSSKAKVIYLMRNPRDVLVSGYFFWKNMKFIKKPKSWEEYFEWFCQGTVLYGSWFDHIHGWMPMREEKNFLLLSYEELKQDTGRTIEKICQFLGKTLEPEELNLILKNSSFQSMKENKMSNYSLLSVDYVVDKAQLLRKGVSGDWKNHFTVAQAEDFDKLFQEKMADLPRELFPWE

SULT1A1 [2] = target: T2, SULT1A1 (Homo sapiens, UniProt P50225); assay: Sulfonation by cytosol of HEK293/SULT1A1-overexpressing cells; details: SULT1A1 cytosol; 1 h at 37 °C; mean ± s.d., three experiments
[3] = Sulfonation activity of pooled human liver cytosols; details: Human liver cytosol; 1 h at 37 °C; mean ± s.d., three experiments
TK6/SULT vector cells [4] = details: 45 µM
SULT1C4 [5] = target: T3, SULT1C4 (Homo sapiens, UniProt O75897)
SULT1A1 [6] = target: T2, SULT1A1
TK6 cells = assay: MTT assay of cell growth in TK6 cells; type: cell-based, human; details: read-out: IC50 on cell growth
TK6/SULT2A1 cells [7] = assay: MTT assay of cell growth in TK6/SULT2A1 cells; details: for IC50: read-out: IC50 on cell growth
SULT1E1 [8] = target: T4, SULT1E1 (Homo sapiens, UniProt P49888)
T4 sequence (P49888 1-294): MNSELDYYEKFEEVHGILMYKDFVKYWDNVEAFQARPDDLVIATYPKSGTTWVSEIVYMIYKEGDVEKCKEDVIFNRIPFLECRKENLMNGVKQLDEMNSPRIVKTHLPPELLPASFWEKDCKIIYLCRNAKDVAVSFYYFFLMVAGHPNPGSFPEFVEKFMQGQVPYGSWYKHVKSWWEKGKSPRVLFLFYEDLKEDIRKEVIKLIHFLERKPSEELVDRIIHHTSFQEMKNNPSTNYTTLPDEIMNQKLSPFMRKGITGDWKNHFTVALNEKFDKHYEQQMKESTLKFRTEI

TK6/SULT2A1 cells [9] = details: 90 µM
SULT1E1 [10] = target: T4, SULT1E1; assay: Sulfonation by cytosol of HEK293/SULT1E1-overexpressing cells; details: SULT1E1 cytosol; 1 h at 37 °C; mean ± s.d., three experiments
TK6/SULT vector cells [11] = assay: MTT assay of cell growth in TK6/SULT vector cells; details: for IC50: read-out: IC50 on cell growth
SULT1C4 [12] = target: T3, SULT1C4; assay: Sulfonation by cytosol of HEK293/SULT1C4-overexpressing cells; details: SULT1C4 cytosol; 1 h at 37 °C; mean ± s.d., three experiments
TK6/SULT vector cells [13] = type: cell-based, human
[14] = Stability of 12-sulfoxynevirapine in buffer by reversed-phase HPLC; type: physicochemical; details: up to 2 months
[15] = system: immortalized normal liver THLE2 cells; details: 48 h exposure, ref [30]; cited from earlier work
[16] = system: human hepatoma HepG2 cells; details: 48 h exposure, ref [30]; cited from earlier work
SULT1E1 [17] = target: T4, SULT1E1; assay: Inhibition of SULT1E1-catalyzed sulfonation of triclosan; type: biochemical; details: 10 μM pentachlorophenol, preliminary experiments
SULT2A1 [18] = target: T1, SULT2A1; assay: Inhibition of SULT2A1-catalyzed sulfonation of triclosan; type: biochemical; details: 10 μM pentachlorophenol, preliminary experiments
SULT2B1 = target: T5, SULT2B1 (Homo sapiens, UniProt O00204); assay: Sulfonation by cytosol of HEK293/SULT2B1-overexpressing cells; type: in vitro ADME; details: 250 μM [14C]triclosan, 0.5 mg cytosolic protein, 500 μM PAPS, pH 7.2, 37 °C, 2 h
T5 sequence (O00204 1-365): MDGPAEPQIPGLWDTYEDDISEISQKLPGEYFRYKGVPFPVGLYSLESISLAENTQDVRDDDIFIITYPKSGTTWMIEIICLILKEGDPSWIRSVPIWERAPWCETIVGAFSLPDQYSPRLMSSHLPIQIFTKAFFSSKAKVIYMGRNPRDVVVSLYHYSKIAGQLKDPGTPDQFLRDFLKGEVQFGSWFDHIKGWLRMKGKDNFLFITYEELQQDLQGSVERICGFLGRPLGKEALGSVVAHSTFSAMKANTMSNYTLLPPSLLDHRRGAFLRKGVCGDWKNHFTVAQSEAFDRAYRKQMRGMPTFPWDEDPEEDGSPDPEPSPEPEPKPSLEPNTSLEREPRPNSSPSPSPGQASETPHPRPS

[19] = target: T6, cytosols from TK6/SULT2A1 cells (Homo sapiens, UniProt Q06520); assay: Sulfonation of triclosan by cytosols from TK6/SULT2A1 cells; type: in vitro ADME; details: not in TK6 and TK6/SULT vector cytosols
T6 sequence (Q06520 1-285): T1 sequence (Q06520 1-285)

SULT1C2 = SULT1C2 (Homo sapiens, UniProt O00338); assay: Sulfonation by cytosol of HEK293/SULT1C2-overexpressing cells; type: in vitro ADME; details: 250 μM [14C]triclosan, 0.5 mg cytosolic protein, 500 μM PAPS, pH 7.2, 37 °C, 2 h
SULT4A1 = target: T7, SULT4A1 (Homo sapiens, UniProt Q9BR01); assay: Sulfonation by cytosol of HEK293/SULT4A1-overexpressing cells; type: in vitro ADME; details: 250 μM [14C]triclosan, 0.5 mg cytosolic protein, 500 μM PAPS, pH 7.2, 37 °C, 2 h
T7 sequence (Q9BR01 1-284): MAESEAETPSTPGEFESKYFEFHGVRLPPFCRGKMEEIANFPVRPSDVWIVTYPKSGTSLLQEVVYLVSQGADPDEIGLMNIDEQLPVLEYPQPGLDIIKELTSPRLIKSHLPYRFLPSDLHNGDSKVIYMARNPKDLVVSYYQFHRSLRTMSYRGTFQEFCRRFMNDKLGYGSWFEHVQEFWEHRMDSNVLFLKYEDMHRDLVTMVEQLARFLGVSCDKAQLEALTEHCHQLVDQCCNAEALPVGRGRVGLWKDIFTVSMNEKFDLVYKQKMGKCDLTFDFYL

SULT6B1 = target: T8, SULT6B1 (Homo sapiens, UniProt Q6IMI4); assay: Sulfonation by cytosol of HEK293/SULT6B1-overexpressing cells; type: in vitro ADME; details: 250 μM [14C]triclosan, 0.5 mg cytosolic protein, 500 μM PAPS, pH 7.2, 37 °C, 2 h
T8 sequence (Q6IMI4 1-303): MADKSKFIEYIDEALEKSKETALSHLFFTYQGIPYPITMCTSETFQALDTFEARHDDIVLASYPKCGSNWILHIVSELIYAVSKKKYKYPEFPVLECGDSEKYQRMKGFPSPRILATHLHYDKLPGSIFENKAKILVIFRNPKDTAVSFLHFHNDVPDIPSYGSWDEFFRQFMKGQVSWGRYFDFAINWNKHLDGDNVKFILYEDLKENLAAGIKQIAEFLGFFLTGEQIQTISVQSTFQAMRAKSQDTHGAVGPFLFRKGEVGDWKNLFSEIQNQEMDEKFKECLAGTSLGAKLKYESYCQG

T2 sequence (P50225 whole entry): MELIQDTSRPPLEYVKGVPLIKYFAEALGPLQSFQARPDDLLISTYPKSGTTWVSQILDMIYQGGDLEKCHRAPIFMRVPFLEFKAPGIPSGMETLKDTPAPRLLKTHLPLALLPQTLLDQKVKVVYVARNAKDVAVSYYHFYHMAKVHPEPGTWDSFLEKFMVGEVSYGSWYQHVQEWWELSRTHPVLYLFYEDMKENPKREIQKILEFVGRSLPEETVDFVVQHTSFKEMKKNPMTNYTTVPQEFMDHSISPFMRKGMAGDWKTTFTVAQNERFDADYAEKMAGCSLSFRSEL
T3 sequence (O75897 whole entry): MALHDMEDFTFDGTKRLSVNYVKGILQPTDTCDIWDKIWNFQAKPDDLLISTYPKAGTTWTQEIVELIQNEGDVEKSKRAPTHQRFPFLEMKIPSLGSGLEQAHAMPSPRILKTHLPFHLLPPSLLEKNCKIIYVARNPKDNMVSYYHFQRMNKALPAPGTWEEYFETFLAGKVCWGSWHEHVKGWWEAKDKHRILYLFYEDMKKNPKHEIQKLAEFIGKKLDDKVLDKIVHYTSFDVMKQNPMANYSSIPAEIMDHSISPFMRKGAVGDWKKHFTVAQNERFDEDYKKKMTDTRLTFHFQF
Chain of SULT1C2 (O00338 whole entry): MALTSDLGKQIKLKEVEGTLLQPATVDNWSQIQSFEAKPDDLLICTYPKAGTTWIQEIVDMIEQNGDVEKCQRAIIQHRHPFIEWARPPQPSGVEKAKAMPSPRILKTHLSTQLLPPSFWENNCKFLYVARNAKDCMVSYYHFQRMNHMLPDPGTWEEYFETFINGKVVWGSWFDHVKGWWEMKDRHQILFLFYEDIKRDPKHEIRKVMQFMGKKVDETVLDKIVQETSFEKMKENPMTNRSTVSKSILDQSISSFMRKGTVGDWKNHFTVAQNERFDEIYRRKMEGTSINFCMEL

For O=C1Nc2c(CO)ccnc2N(C2CC2)c2ncccc21 [12-Hydroxynevirapine], the Km (SULT2A1 [1]) was 545 ± 68.5 µM, the Vmax (SULT1A1 [2]) was 71.2 ± 2.0 pmol min^−1 cytosolic protein mg^−1 and the Vmax [3] was 71.0 ± 4.5 pmol min^−1 cytosolic protein mg^−1. The Cell viability (TK6/SULT vector cells [4]) was “approximately 50%”, the Km (SULT1C4 [5]) was 260 ± 38.9 µM and the Km (SULT1A1 [6]) was 787 ± 62.2 µM. The IC50 (TK6 cells; TK6 cells, 48 h exposure, MTT assay) was 42.6 µM, the IC50 (TK6/SULT2A1 cells [7]; TK6/SULT2A1 cells, 48 h exposure, MTT assay) was 89.9 µM and the Km (SULT1E1 [8]) was 216 ± 34 µM. The Cell viability (TK6/SULT2A1 cells [9]) was “approximately 50%”, the Vmax (SULT1E1 [10]) was 71.0 ± 2.8 pmol min^−1 cytosolic protein mg^−1 and the IC50 (TK6/SULT vector cells [11]; TK6/SULT vector cells, 48 h exposure, MTT assay) was 45.1 µM. For the same compound, the Vmax (SULT1C4 [12]) was 56.0 ± 2.2 pmol min^−1 cytosolic protein mg^−1 and the “Formation of 12-sulfoxynevirapine in treated cells” value (TK6/SULT vector cells [13]) was “not detected”.

In the case of O=C1Nc2c(COS(=O)(=O)O)ccnc2N(C2CC2)c2ncccc21 [12-Sulfoxynevirapine], the Stability in buffer ([14]; 50 mM Bis-Tris, pH 7.1, room temperature) is reported as “stable” and the Stability in buffer ([14]; 100 mM sodium phosphate, pH 7.2, room temperature) is reported as “stable”.

In the case of Cc1ccnc2c1NC(=O)c1cccnc1N2C1CC1 [Nevirapine, 11-cyclopropyl-5,11-dihydro-4-methyl-6H-dipyrido [3,2-b:2′,3′-e][1, 4]diazepin-6-one], the “Concentration that inhibited cell growth” value [15] is listed as “approximately 1.0 mM”, the “Concentration that inhibited cell growth” value [16] is listed as “approximately 1.0 mM” and the IC50 (TK6 cells; Homo sapiens, TK6, 48 h) is listed as ~130 µM. For the same compound, the IC50 (TK6/SULT2A1 cells [7]; Homo sapiens, 48 h) was ~130 µM and the IC50 (TK6/SULT vector cells [11]; Homo sapiens, 48 h) was ~130 µM.

With Oc1c(Cl)c(Cl)c(Cl)c(Cl)c1Cl [Pentachlorophenol, pentachlorophenol] the “Triclosan being sulfated in the presence of inhibitor” value (SULT1E1 [17]) was 44%, the “Cytotoxicity of the SULT substrate alone” value (TK6/SULT2A1 cells [7]; TK6/SULT2A1 cells, tested concentration (DHEA 5 μM, pentachlorophenol 10 μM), 48 h, MTT) was “not cytotoxic” and the “Triclosan being sulfated in the presence of inhibitor” value (SULT2A1 [18]) was 12%. The “Cytotoxicity of the SULT substrate alone” value (TK6/SULT vector cells [11]; TK6/SULT vector cells, tested concentration (DHEA 5 μM, pentachlorophenol 10 μM), 48 h, MTT) was “not cytotoxic”.

In the case of Oc1cc(Cl)ccc1Oc1ccc(Cl)cc1Cl [Triclosan, triclosan], the Sulfonation of triclosan (SULT2B1) is reported as 46.6 ± 1.9 pmol min^−1 mg cytosolic protein^−1, the “Sulfonation activity towards triclosan” value [19] is reported as “showed sulfonation activity” and the Sulfonation of triclosan (SULT1C2) is reported as 28.5 ± 0.2 pmol min^−1 mg cytosolic protein^−1. For the same compound, the Sulfonation of triclosan (SULT4A1) was 50.4 ± 0.6 pmol min^−1 mg cytosolic protein^−1 and the Sulfonation of triclosan (SULT6B1) was 33.8 ± 1.0 pmol min^−1 mg cytosolic protein^−1.
